Experimental data reported in PMC3945760, “Antioxidant action and cytotoxicity on HeLa and NIH-3T3 cells of new quercetin derivatives” (Interdisciplinary Toxicology, 2013).
Read-outs that look alike come from different tables or passages of the source.

Columns and labels:
[1] = Scavenging of DPPH radical; conditions: 10 min, room temperature, methanol, read-out: IC50 ± SD DPPH
Experimental: We used the simple spectrophotometric method according to Yen and Chen ([1995]) to determine the ability to scavenge free radicals. Binding of DPPH? radical by compounds causes its decolorization. The compounds tested were diluted in methanol to the final concentration 200 µM to 12.5 µM. Trolox served as standard antioxidant control. Reactions of samples with DPPH? solution were performed in 96-well plates and lasted for 10 min at room temperature in the dark. After that, the absorbance changes were measured spectrophotometrically at 520 nm (Multiskan FC, Thermo Scientific, DE). Each value is the mean of 5 wells with standard deviation. Inhibitory concentrations (IC50) were expressed as the concentration of the derivative tested to react with one half of the DPPH? and were calculated by SigmaPlot.

[2] = tested on: non-cancer murine fibroblast cells NIH-3T3; assay: MTT assay on NIH-3T3 cells; type: cell-based; conditions: for IC50: MTT, 72 h drug exposure, read-out: IC50 ± SD NIH-3T3 cells
Experimental: (§1) The human tumor cell line HeLa and murine fibroblast NIH-3T3 cells were obtained from the ATCC (Rockville, MD, USA). The cells grown at 37 °C in humidified 5%-CO2 and 95%-air atmosphere were in Dulbecco's modified eagle medium supplemented with 10% (vol/vol) inactivated bovine serum, penicillin G and streptomycin (100 mg/l). Before a uniform monolayer of cells was formed, cells were freed from the surface of the culture flask by a 0.25% solution of trypsin and were subcultivated two to three times a week. The cells were plated on the cultivation flask (surface 25 cm^2) at a density of 4×10^4 HeLa cells and 6×10^4 NIH-3T3 cells per ml medium and incubated for 24 h prior to the experiments.
(§2) The cytotoxic effect of the compounds prepared on cells was detected in vitro using the mitochondrial cytotoxic test according to Jantová et al. ([2010]) with modifications. Cell viability was evaluated using thiazolyl blue tetrazolium bromide (MTT), which indicates the metabolic activity of cells. The experiment was performed in 96-well microplates. The cells were seeded at a density of 3.5×10^3 HeLa or NIH-3T3 cells per well. Samples were dissolved in DMSO (stock solution 10 mM) and subsequently diluted in medium to the final concentration of 5 µM to 100 µM (concentration of DMSO 0.5%) and after 24 h they were added to the cells. Microplates were cultivated for 72 h in thermostat at 37 °C and 5% CO2 atmosphere. After incubation thiazolyl blue tetrazolium bromide (3.33 mg/ml phosphate buffered saline, pH=7.4) was pipetted to each well and left to incubate for further two hours. Then the medium with MTT solution was removed. Formazan crystals in viable cells were dissolved in the lysis solution (4 mM HCl and 0.1% Nonidet P40 in ethanol). Microplates were shaken 15 min at 1500 rpm. Absorbance was measured at 540 nm and reference wavelength at 740 nm (Multiskan FC, Thermo Scientific, DE). Each value is the mean of 6 wells with standard deviation. Inhibition activity was expressed as percentages of control with DMSO. For each compound IC50 values were calculated by SigmaPlot.

[3] = Ferric reducing antioxidant power (FRAP); conditions: 10 min, 37 °C, read-out: IC50 ± SD FRAP
Experimental: The antioxidant reducing power of the derivatives tested was performed using the FRAP method according to Benzie and Strain ([1996]). Ferric to ferrous ion reduction at low pH causes the formation of a colored ferrous-tripyridyltriazine complex. Samples diluted in methanol (200 µM to 12.5 µM) and FRAP reagent reacted for 10 min at 37 °C in 96-well microplates. At the end, absorbance changes were measured spectrophotometrically at 593 nm (Multiskan FC, Thermo Scientific, DE). Each value is the mean of 5 wells with standard deviation. Inhibitory concentrations (IC50) were expressed as the concentration of the derivative tested reducing one half of ferric complexes and were calculated by SigmaPlot.

[4] = tested on: human cervical cancer cells HeLa; assay: MTT assay on HeLa cells; type: cell-based; conditions: for IC50: MTT, 72 h drug exposure, read-out: IC50 ± SD HeLa cells
Experimental: as §1, §2

NIH-3T3 cells = assay: Light microscopy of NIH-3T3 cells; type: cell-based, murine; conditions: NIH-3T3, 25 µM and 50 µM, 72 h
Experimental: (§3) The cytotoxic action of the effective chloronaphtoquinone quercetin 5 was further observed also by light microscopy after 72 h of HeLa and NIH-3T3 cells cultivation. […] On the other hand, a significant decrease in cell number was found in cells treated with both concentrations studied (25 µM and 50 µM).
(§4) We monitored prepared quercetin derivatives for their cytotoxic action on human cervical cancer cells HeLa in the concentration range from 5 µM to 100 µM. For comparison non-cancer murine fibroblast cells NIH-3T3 were also evaluated. The MTT test and light microscopy were used for cytotoxicity measurements.

HeLa cells = assay: Light microscopy of HeLa cells; type: cell-based, human; conditions: 25 µM and 50 µM, 72 h
Experimental: as §3, §4

Row | SMILES | IC50 [1] [µM] | IC50 [3] [µM] | IC50 [4] [µM] | IC50 ([2]; Mus musculus, NIH3T3, 72 h) [µM] | inhibition at 25 µM ([2]; Mus musculus, NIH3T3, NIH-3T3, 25 µM, 72 h, read-out: Inhibition of cell proliferation) [%] | inhibition at 50 µM ([2]; Mus musculus, NIH3T3, NIH-3T3, 50 µM, 72 h, read-out: Inhibition of cell proliferation) [%] | inhibition at 100 µM ([2]; Mus musculus, NIH3T3, NIH-3T3, 100 µM, 72 h, read-out: Inhibition of cell proliferation) [%] | morphologic changes (NIH-3T3 cells) | morphologic changes (HeLa cells) | inhibition at 25 µM ([4]; 25 µM, 72 h, read-out: Inhibition of cell proliferation) [%] | inhibition at 50 µM ([4]; 50 µM, 72 h, read-out: Inhibition of cell proliferation) [%] | inhibition at 100 µM ([4]; 100 µM, 72 h, read-out: Inhibition of cell proliferation) [%] | IC50 [2] [µM]
1 | CC(=O)OC1CC(OC(C)=O)(C(=O)Oc2cc(O)c3c(=O)c(O)c(-c4ccc(OC(=O)C5(OC(C)=O)CC(OC(C)=O)C(OC(C)=O)C(OC(C)=O)C5)c(O)c4)oc3c2)CC(OC(C)=O)C1OC(C)=O (stereo not shown) [compound 9, di(tetraacetylquinoyl) quercetin] | 63.7 ± 2.6 | 112 ± 7.3 | 19.5 ± 0.8 | 16.1 ± 0.4 | – | – | – | – | – | – | – | – | –
2 | CC(=O)Oc1cc(OC(C)=O)c2c(=O)c(OC(C)=O)c(-c3ccc(OC(C)=O)c(OC(C)=O)c3)oc2c1 [compound 6, pentaacetyl quercetin] | > 200 | > 200 | 29.6 ± 1.9 | 15.5 ± 0.7 | – | – | – | – | – | – | – | – | –
3 | CC(C)(CCl)C(=O)Oc1cc(-c2oc3cc(O)cc(O)c3c(=O)c2O)ccc1O [compound 2] | 27 ± 0.2 | 12.5 ± 0.3 | 43.4 ± 2.8 | 26.8 ± 0.5 | – | – | – | – | – | – | – | – | –
4 | CC(=O)Oc1ccc(/C=C/C(=O)Oc2ccc(-c3oc4cc(O)c(O)cc4c(=O)c3OC(=O)/C=C/c3ccc(OC(C)=O)c(OC(C)=O)c3)cc2OC(=O)/C=C/c2ccc(OC(C)=O)c(OC(C)=O)c2)cc1OC(C)=O [compound 11] | 35.4 ± 2.7 | > 200 | 16.5 ± 1.5 | 10.6 ± 0.1 | – | – | – | – | – | – | – | – | –
5 | CC(=O)Oc1ccccc1C(=O)Oc1ccc(-c2oc3cc(O)cc(OC(=O)c4ccccc4OC(C)=O)c3c(=O)c2OC(=O)c2ccccc2OC(C)=O)cc1OC(=O)c1ccccc1OC(C)=O [compound 12, tetra(acetylsalicyloyl) quercetin] | > 200 | > 200 | > 50 | > 50 | – | – | – | – | – | – | – | – | –
6 | O=c1c(O)c(-c2ccc(O)c(O)c2)oc2cc(O)cc(O)c12 [Q, quercetin] | 16.2 ± 1.1 | 12.5 ± 0.9 | 35.5 ± 1.1 | 20.9 ± 0.9 | – | – | – | – | – | – | – | – | –
7 | CC(C)(CCl)C(=O)Oc1cc(OC(=O)C(C)(C)CCl)c2c(=O)c(O)c(-c3ccc(O)c(OC(=O)C(C)(C)CCl)c3)oc2c1 [compound 3] | > 200 | > 200 | 65 ± 4.5 | 20.3 ± 1.9 | – | – | – | – | – | – | – | – | –
8 | COc1ccc(/C=C/C(=O)Oc2cc(-c3oc4cc(O)cc(O)c4c(=O)c3O)ccc2O)cc1OC(C)=O [compound 15] | > 200 | > 200 | > 50 | > 50 | – | – | – | – | – | – | – | – | –
9 | CC1CN(CC(O)COc2cc(O)cc3oc(-c4ccc(O)c(O)c4)c(O)c(=O)c23)CC(C)O1 (stereo not shown) [compound 4] | > 200 | > 200 | > 100 | > 100 | – | – | – | – | – | – | – | – | –

More lines, main results first:

Row | IC50 [1] [µM] | IC50 [3] [µM] | IC50 [4] [µM] | SMILES | IC50 ([2]; Mus musculus, NIH3T3, 72 h) [µM] | inhibition at 25 µM ([2]; Mus musculus, NIH3T3, NIH-3T3, 25 µM, 72 h, read-out: Inhibition of cell proliferation) [%] | inhibition at 50 µM ([2]; Mus musculus, NIH3T3, NIH-3T3, 50 µM, 72 h, read-out: Inhibition of cell proliferation) [%] | inhibition at 100 µM ([2]; Mus musculus, NIH3T3, NIH-3T3, 100 µM, 72 h, read-out: Inhibition of cell proliferation) [%] | morphologic changes (NIH-3T3 cells) | morphologic changes (HeLa cells) | inhibition at 25 µM ([4]; 25 µM, 72 h, read-out: Inhibition of cell proliferation) [%] | inhibition at 50 µM ([4]; 50 µM, 72 h, read-out: Inhibition of cell proliferation) [%] | inhibition at 100 µM ([4]; 100 µM, 72 h, read-out: Inhibition of cell proliferation) [%] | IC50 [2] [µM]
10 | 34.7 ± 1 | 39.5 ± 2.1 | 34.7 ± 1 | Cc1c(C)c2c(c(C)c1O)CCC(C)(C(=O)O)O2 (stereo not shown) [T, trolox, reference compound] | 39.5 ± 2.1 | – | – | – | – | – | – | – | – | –
11 | 28.4 ± 3 | 64.5 ± 0.6 | 13.2 ± 1.6 | O=C1C(Cl)=C(Oc2cc(-c3oc4cc(O)cc(O)c4c(=O)c3O)ccc2O)C(=O)c2ccccc21 [compound 5, chloronaphtoquinone quercetin] | 16.5 ± 0.1 | 71.9 | 85.2 | 93.7 | cell rounding and cell separation from the cultivation surface | cell rounding and cell separation from the cultivation surface | 94.5 | 97.9 | 97.7 | –
12 | 82.8 ± 3.3 | 183 ± 13.5 | > 50 | COc1ccc(/C=C/C(=O)Oc2ccc(-c3oc4cc(O)cc(O)c4c(=O)c3O)cc2OC(=O)/C=C/c2ccc(OC)c(OCC=C(C)C)c2)cc1OCC=C(C)C [compound 14] | > 50 | – | – | – | – | – | – | – | – | –
13 | 58.8 ± 6.2 | 103 ± 6.2 | 64 ± 7.5 | O=C1c2c(O)cc(O)cc2OC2(c3ccc(O)c(O)c3)Oc3ccc(-c4oc5cc(O)cc(O)c5c(=O)c4O)cc3OC12O (stereo not shown) [compound 1, diquercetin] | 32.9 ± 1.1 | – | – | – | – | – | – | – | – | –
14 | > 200 | > 200 | > 50 | CC(C)=CCOc1ccc(/C=C/C(=O)Oc2cc(O)c3c(=O)c(O)c(-c4ccc(OC(=O)/C=C/c5ccc(OCC=C(C)C)c(OCC=C(C)C)c5)c(OC(=O)/C=C/c5ccc(OCC=C(C)C)c(OCC=C(C)C)c5)c4)oc3c2)cc1OCC=C(C)C [compound 7] | > 100 | – | – | – | – | – | – | – | – | > 50
15 | 161 ± 13.2 | > 200 | > 50 | CC(C)=CCOc1ccc(/C=C/C(=O)Oc2cc(O)c3c(=O)c(O)c(-c4ccc(OC(=O)/C=C/c5ccc(OCC=C(C)C)c(OCC=C(C)C)c5)c(O)c4)oc3c2)cc1OCC=C(C)C [compound 8] | > 100 | – | – | – | – | – | – | – | – | > 50
